Assay results published in PMC9849758, “Chemically diverse activity-based probes with unexpected inhibitory mechanisms targeting trypsin-like serine proteases” (Frontiers in Chemistry, 2023).
“Also recorded” adds a separate entry of the source. Where a name gives a salt, the structure may show the parent alone. Read-outs that look alike come from different tables or passages of the source.

Key:
Format in all cases: biochemical
Trypsin-3 = target: T1, Trypsin-3 (Homo sapiens, UniProt P35030); experiment: Kinetic progress curves (kapp, K1, KI*, mechanism); parameters: purchased R&D; conditions: for Trypsin-3 kapp: apparent second-order rate constant from progress curves; for Trypsin-3 kapp / Ki: mean ± SD; for Trypsin-3 mechanism of inhibition: defined by the progress curves: slow-binding (Rev.) or irreversible (Irrev.)
T1 sequence (P35030 1-304): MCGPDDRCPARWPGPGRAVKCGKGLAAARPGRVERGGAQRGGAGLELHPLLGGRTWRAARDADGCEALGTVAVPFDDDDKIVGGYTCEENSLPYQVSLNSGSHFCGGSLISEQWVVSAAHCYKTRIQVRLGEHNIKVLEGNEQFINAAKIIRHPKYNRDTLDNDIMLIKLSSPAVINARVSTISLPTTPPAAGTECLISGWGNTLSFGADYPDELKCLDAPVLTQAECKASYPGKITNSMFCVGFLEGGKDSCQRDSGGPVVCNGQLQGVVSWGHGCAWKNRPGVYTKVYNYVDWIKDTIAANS
Method: (§1) Because the compounds described in this paper were previously described as irreversible inhibitors, the IC50 value is inversely correlated with the second-order rate constant of inactivation. For a simple pseudo-first-order inactivation process, the activity after incubation with inhibitor (vi) varies with the inhibitor concentration (i), as described in the following equation: vi=v0·e^−kit where v0 is the activity in the absence of an inhibitor, k is the second-order rate constant of inactivation, and t is the time. The inactivation rate constant was determined from the time course of inhibition.
(§2) Kinetic assays were performed in the following manner. The inhibitor was mixed with the substrate, and the buffer solution with the enzyme was added at the time zero. The progress curves show the release of pNA or AMC as a function of time. Initially, no inhibitor is bound to the enzyme, and the tangent to the progress curve (dA/dt) is proportional to the free enzyme concentration. The free enzyme concentration decreases over time due to inhibitor binding kinetics, as described above. Progress curves were recorded in pseudo-first-order conditions ([I]0>>[E]0) and with less than 10% conversion of the substrate during the entire time course. In these conditions, dA/dt decreases exponentially with time. The progress curves were fitted with the integrated rate equation with GraFit7 to yield a value for kobs, a pseudo-first-order rate constant. At=Ao+vs∙t+vi−vs∙1−e^−kobs∙t/kobs where At is the absorbance at time t, A0 is the absorbance at time zero, vi is the initial rate and vs is the velocity at the steady-state.
(§3) The apparent second-order rate constant (kapp) was calculated from the slope of the linear part of the plot of kobs vs. the inhibitor concentration ([I]0). In the case of competition between the inhibitor and the substrate, kapp is smaller than the “real” second-order rate constant k discussed above because a certain fraction of the enzyme is present as an enzyme-substrate complex. kapp depends on the substrate concentration used in the experiment, as described by [Lambeir et al. (1996)].
(§4) The apparent equilibrium constants were obtained from the following equations, vi/vo=1/1+I/K1; vS/vo=1/1+I/KI* where vi is the initial rate, vs is the steady-state velocity and vo is the uninhibited initial rate.

[1] = target: T2, Cathepsin G (cathepsin G human neutrophil) (Homo sapiens, UniProt P08311); experiment: IC50 determination, spectrophotometric protease assay
T2 construct: Cathepsin G (cathepsin G human neutrophil, Sigma-Aldrich); purchased Sigma-Aldrich; host or cells: human neutrophil
T2 sequence (P08311 21-255): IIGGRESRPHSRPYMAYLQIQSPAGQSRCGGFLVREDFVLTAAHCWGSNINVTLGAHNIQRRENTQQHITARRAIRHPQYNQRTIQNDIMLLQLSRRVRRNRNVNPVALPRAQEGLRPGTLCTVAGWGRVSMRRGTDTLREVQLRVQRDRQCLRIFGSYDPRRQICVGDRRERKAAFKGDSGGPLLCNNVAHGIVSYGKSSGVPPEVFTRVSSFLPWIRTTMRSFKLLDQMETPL
Method: (§5) The IC50 values were determined using a spectrophotometric assay. All the experiments were conducted in duplicate. The readout consisted of evaluating the protease-mediated release of the chromophore para-nitroaniline (pNA) or fluorophore 7-amino-4-methyl coumarin (AMC) moieties from the respective substrates. Enzymatic activity was measured for 30 min at 37°C. All compounds were initially screened at three concentrations (10, 1, and .1 μM) to estimate the range of the IC50 value. Those which were able to reduce protease activity by at least 50% at a concentration of 10 μM were submitted to an exact IC50 determination. […] A third independent experiment was performed when the standard deviation of the two independent experiments was higher than […]. IC50 values were obtained by fitting the data with the four-parameter logistics equation using GraphPad Prism 9.
(§6) The conditions for each protease are described as follows, the concentration of substrate used was at the corresponding Km.

[2] = target: T3, TLCK-treated pancreatic bovine chymotrypsin (Bos taurus, UniProt P00766); experiment: as above
T3 construct: TLCK-treated pancreatic bovine chymotrypsin (Sigma-Aldrich); purchased Sigma-Aldrich; host or cells: bovine pancreas
Method: as §5, §6

[3] = target: T4, uPA (recombinant urokinase plasminogen activator) (Homo sapiens, UniProt P00749); experiment: as above
T4 construct: purchased HYPHEN BioMed
Method: as §5, §6

[4] = target: T5, Thrombin (recombinant thrombin) (Homo sapiens, UniProt P00734); experiment: as above
T5 construct: purchased R&D
Method: as §5, §6

[5] = target: T6, Trypsin-3 (recombinant trypsin-3) (Homo sapiens, UniProt P35030); experiment: as above
T6 construct: purchased R&D
T6 sequence (P35030 1-304): T1 sequence (P35030 1-304)
Method: as §5, §6

[6] = target: T7, β-tryptase (recombinant tryptase β-2) (Homo sapiens, UniProt P20231); experiment: as above
T7 construct: purchased EnzoLife Sciences
Method: as §5, §6

CatG = target: T8, CatG (Homo sapiens, UniProt P08311); experiment: Kinetic progress curves (kapp, mechanism); parameters: Cathepsin G (cathepsin G human neutrophil, Sigma-Aldrich); purchased Sigma-Aldrich; host or cells: human neutrophil; conditions: for CatG mechanism of inhibition: defined by the progress curves: slow-binding (Rev.) or irreversible (Irrev.)
T8 sequence (P08311 21-255): T2 sequence (P08311 21-255)
Method: as §1, §2, §3, §4

[7] = read-out: CatG IC50, desthiobiotin probes, 15 min preincubation at 37°C, mean ± SD
[8] = read-out: ChTryp IC50, desthiobiotin probes, 15 min preincubation at 37°C, mean ± SD
[9] = read-out: uPA IC50, desthiobiotin probes, 15 min preincubation at 37°C, mean ± SD
[10] = read-out: Thrombin IC50, desthiobiotin probes, 15 min preincubation at 37°C, mean ± SD
[11] = read-out: Trypsin-3 IC50, desthiobiotin probes, 15 min preincubation at 37°C, mean ± SD
[12] = read-out: β-tryptase IC50, desthiobiotin probes, 15 min preincubation at 37°C, mean ± SD

T7 sequence (P20231 31-275): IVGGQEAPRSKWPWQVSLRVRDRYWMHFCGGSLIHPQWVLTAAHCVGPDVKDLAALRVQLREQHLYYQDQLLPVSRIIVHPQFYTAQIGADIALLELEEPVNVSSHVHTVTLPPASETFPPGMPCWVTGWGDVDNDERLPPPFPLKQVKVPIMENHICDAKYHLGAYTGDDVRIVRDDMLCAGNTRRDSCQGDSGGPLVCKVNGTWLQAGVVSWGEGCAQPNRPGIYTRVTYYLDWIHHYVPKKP

SMILES | Trypsin-3 kapp (Trypsin-3) | Trypsin-3 mechanism of inhibition (Trypsin-3) | IC50 [1, 7] [nM] | IC50 [2, 8] [nM] | IC50 [3, 9] [nM] | IC50 [4, 10] [nM] | IC50 [5, 11] [nM] | IC50 [6, 12] [nM] | CatG kapp (CatG; apparent second-order rate constant from progress curves, mean ± SD) [M⁻¹ s⁻¹] | CatG mechanism of inhibition (CatG) | Ki (Trypsin-3; Trypsin-3 K1, apparent equilibrium constant of the first step of slow-binding) [nM] | Ki (Trypsin-3; Trypsin-3 KI*, apparent equilibrium constant of the overall process) [nM] | IC50 [1] [nM] | IC50 [2] [nM] | IC50 [3] [nM] | IC50 [4] [nM] | IC50 [5] [nM] | IC50 [6] [nM]
C[C@@H]1NC(=O)N[C@@H]1CCCCCC(=O)NCCOCCOCCOCCn1cc(CCCOC(=O)NC(CCCNC(=N)N)P(=O)(Oc2ccccc2)Oc2ccccc2)nn1 (stereo partly drawn) [45b] | 17 × 10^2 ± 122 M^−1 s^−1 | Irrev. | > 10000 | > 10000 | > 10000 | 610 ± 170 | 220 ± 20 | 800 ± 50 |  |  |  |  |  |  |  |  |  | 
CC(=O)Nc1ccc(OP(=O)(Oc2ccc(NC(C)=O)cc2)C(NC(=O)OCCCc2cn(CCOCCOCCOCCNC(=O)CCCCC[C@H]3NC(=O)N[C@H]3C)nn2)c2ccc(NC(=N)N)cc2)cc1 (stereo partly drawn) [56b] | 334 ± 85 M⁻¹ s⁻¹ | Irrev. | 620 ± 9 | > 10000 | 5190 ± 80 | > 10000 | 220 ± 4 | 390 ± 100 | 420 ± 37 | Irrev. |  |  |  |  |  |  |  | 
C[C@@H]1NC(=O)N[C@@H]1CCCCCC(=O)NCCOCCOCCOCCn1cc(CCCOC(=O)NC(Cc2ccc(NC(=N)N)cc2)P(=O)(Oc2ccccc2)Oc2ccccc2)nn1 (stereo partly drawn) [50b, 3-(1-(18-((4R,5S)-5-methyl-2-oxoimidazolidin-4-yl)-13-oxo-3,6,9-trioxa-12-azaoctadecyl)-1H-1,2,3-triazol-4-yl)propyl (1-(diphenoxyphosphoryl)-2-(4-guanidinophenyl)ethyl)carbamate trifluoroacetate salt] | 49 × 10^3 ± 2979 M^−1 s^−1 | Rev. |  |  |  |  |  |  |  | * ^d Rev. | 98 ± 22 | 3 ± 0.2 | 360 ± 4 | 1640 ± 500 | 20 ± 0.1 | 3520 ± 390 | 30 ± 10 | 360 ± 70
C#CCCCOC(=O)NC(CCCNC(=N)N)P(=O)(Oc1ccc(Cl)cc1)Oc1ccc(Cl)cc1 (stereo not drawn) [33b] | 35 × 10^2 ± 40 M^−1 s^−1 | irreversibility; also recorded: Irrev |  |  |  |  |  |  |  | * ^d Rev. |  |  | 2760 ± 50 | > 10000 | 250 ± 30 | 110 ± 7 | 40 ± 8 | 170 ± 10
C#CCCCOC(=O)NC(c1ccc(NC(=N)N)cc1)P(=O)(Oc1ccc(Cl)cc1)Oc1ccc(Cl)cc1 (stereo not drawn) [39b, Pent-4-yn-1-yl ((bis(4-chlorophenoxy)phosphoryl)(4-guanidinophenyl)methyl)carbamate] |  | Irrev. |  |  |  |  |  |  |  | reversibly and Rev. |  |  | 90 ± 22 | > 10000 | 220 ± 60 | > 10000 | 90 ± 9 | 70 ± 4
C[C@@H]1NC(=O)N[C@@H]1CCCCCC(=O)NCCOCCOCCOCCn1cc(CCCOC(=O)NC(CCCNC(=N)N)P(=O)(Oc2ccc(Cl)cc2)Oc2ccc(Cl)cc2)nn1 (stereo partly drawn) [46b] | 92 × 10^2 ± 349 M^−1 s^−1 | Irrev. | > 10000 | > 10000 | 420 ± 50 | 40 ± 6 | 70 ± 2 | 40 ± 6 |  |  |  |  |  |  |  |  |  | 
